In US20090023801A1, “INHIBITORS OF BETA AMYLOID PRODUCTION” (Wyeth, priority 2007, published 2009):
Read-outs that look alike come from different tables or passages of the source.

What was measured:
Type in all cases: cell-based
Aβ40 = assay: Aβ-lowering MSD electrochemiluminescent assay of conditioned media from CHO cells expressing human APP (Aβ40)
Experimental: (§1) The activity of compounds in lowering the generation of Aβ40 and Aβ42, the most abundant forms of beta amyloid, from APP (amyloid precursor protein) was measured in an electrochemiluminescent (ECL) assay of conditioned media from chinese hamster ovary (CHO) cells stably expressing the human amyloid precursor protein (APP) reporter construct, hAPP-REPNL751 (Sughir, R. et al.; J. Biolog. Chem (1992) 267: 25602-25608). Aβ peptides were secreted at high levels into cell culture media by cells carrying the human APP transgene; compounds were tested for their capacity to modulate this production. The Aβ peptide in the conditioned medium was quantitated by a sandwich immunoassay with the MSD ECL detection system. Cell metabolism was measured using a 3-(4,5-dimethylthiazol-2-yl)-5-(3-carboxymethoxypheny)-2-(4-sulfophenyl)-2H-tetrazolium, inner salt (MTS) salt kit (which measures the mitochondrial activity of cells by the bioreduction of Owen's reagent). This assay consists of the following protocol:
(§2) 1. hAPP-REPNL751CHO cells were seeded into 96 well plates and incubated until about 60-70% confluence.
(§3) 2. Medium was removed, cells were washed, and fresh serum-free medium (Ultraculture) was put on cells.
(§4) 3. Compounds were diluted and then added to the cell medium.
(§5) 4. Cells were incubated, with compounds, for indicated times.
(§6) 5. Streptavidin coated Meso Scale Discover (MSD) plates (MSD standard MULTI-ARRAY® 96 plate, cat.# P11SA-1) were washed […] with TTBS (Tris-buffered saline, the TWEEN® 20 reagent).
(§7) 6. 20 μL conditioned medium were removed from the cells and added to the TTBS prewashed MSD plates.
(§8) 7. Standard curve dilutions of synthetic Aβ40 and Aβ42 were prepared and added to the MSD plates.
(§9) 8. A reagent mix was prepared in 1% MSD Blocker A (appropriate concentration of biotinylated 6E10 antibody, detection antibodies to Aβ40, Aβ42, and MSD ruthinylated tag antibody).
(§10) 9. 20 μL reagent mix was distributed to sample plate.
(§11) 10. Plates were incubated with shaking overnight at 4° C.
(§12) 11. Plates were washed 3× with TTBS.
(§13) 12. 150 μL read buffer was added per well (MSD® Read Buffer T, cat#R92TC-2, made 1× with distilled water).
(§14) 13. Plates were read in a MSD® plate reader within 2 hours.
(§15) Assays were accepted or rejected based upon specific performance criteria, including regression coefficient of standard curve, adequate signal to noise ratio, sample signals lying within the range of the standard curve, etc.: the specific parameters were established for each tissue type prior to performing an assay, and were included in the full analytical procedure.
(§16) Plate data from both assays (MTS and MSD® ELISA) were transferred into a Microsoft EXCEL® spreadsheet to determine the toxicity, and inhibition caused by the compounds. Standard curves of Aβ were generated using LSW™ toolbar Hill slope model 42, with 1/y weighting (general sigmoidal curve with Hill slope, a to d; y=(a−d)/(1+(x/c)̂b)+d). Inhibition data were expressed as a percent of the average of the Aβ values in the vehicle treated wells (all values are background subtracted), using LSW™ toolbar Hill Slope model 68 (ligand-receptor binding/sigmoidal, with Hill slope and Bmax to 0; y=Bmax*(1−(x̂n/(K̂n+x̂n))), after raw values were translated/transformed into absolute Aβ values utilizing the standard curve generated as described above (e.g. back calculate absolute Aβ values from the raw values utilizing standard curve). Onboard controls to verify assay performance were checked to assure that amyloid is within linear detection range of the assay, that cells were expressing correctly, and that the MSD itself was performing according to quality control (QC) standards.
(§17) % Inhibition>50% may be considered a positive response or an interesting result in this assay; EC50 determination were determined.
(§18) The beta amyloid inhibitory activity of compounds of formula (I) was determined using the MSD ECL assay. Inhibition of Notch processing was measured using the stable transfection reporter assay See, Table 1 below.

Aβ42 = assay: Aβ-lowering MSD electrochemiluminescent assay of conditioned media from CHO cells expressing human APP (Aβ42)
Experimental: as §1, §2, §3, §4, §5, §6, §7, §8, §9, §10, §11, §12, §13, §14, §15, §16, §17, §18

Notch = assay: Stable transfection Notch reporter assay (HES1-SEAP, P8H6 CHO-K1 cells)
From the text: A concern with compounds that lower beta amyloid synthesis by targeting the γ-secretase enzyme is that this enzyme also is involved in the cleavage of other substrates besides APP especially the Notch substrate. […] Thus, a selectivity of APP cleavage over Notch cleavage is desired in order to avoid G.I. side effects. The activity of compounds in cleaving Notch can be measured in a whole cell functional Notch assay. This is an assay to determine the effects of compounds on the S3 (γ-secretase like) processing of Notch. […] SEAP transactivation is then detected by luminescent assay. The assay consists of the following protocol:
• (i) Materials: The P8H6 inducible stable cell line was derived from T-REX™ CHO-K1, stably expressing Tet repressor, Notch (pZX1) and HES1-SEAP (pZX2) reporter constructs. A Wallac 1450 Victor™ Luminescence Counter was used to measure luminescent signal. All other materials and reagents were of highest quality available and were all from commercial sources.
(ii) Construct Description: • pZX1: Mouse Notch1 with deleted extracellular domain cloned at Hind III/Xho I sites of pcDNA5/TO vector: Ampicillin Resistance for bacteria, hygromycin resistance for cells. • pZX2: Mouse HES1 promoter together with reporter gene SEAP cloned at Not I/Apa I sites of pcDNA3.1 with deletion of CMV promoter.
(iii) Procedure: • 1. P8H6 cells were grown in Ham's F12 complete growth media containing 10% FBS (reduced tetracycline), 2 mM of L-glutamine, 1 mg/mL of hygromycin, 1 mg/mL of the GENETICIN® antibiotic, 10 μg/mL of Blasticidin and 1% Penicillin-Streptomycin were supplemented with doxycline with final induction concentration of 0.2 μg/mL. The cells were seeded in 96-well tissue culture plate at 8000/well. • 2. Test compounds in 0.2% DMSO/25 mM HEPES buffer were diluted at final working concentration of 20 μM, 6.7 μM, 2.2 μM, 741 nM, 247 nM, 82 nM, 27 nM, 9 nM and 3 nM. Diluted compounds then were added to P8H6 cells in 96-well tissue culture plates. For vehicle samples, the same volume of 0.2% DMSO/25 mM HEPES buffer was added. • 3. Cells were incubated at 37° C., 5% CO2 for 48 hours. • 4. SEAP levels in the conditioned media were assessed using the Clontech GREATESCAPE™ SEAP Chemiluminescence detection kit according to the manufacturer's instruction. Briefly, 15 μL of conditioned media were mixed with 45 μL of the dilution buffer and incubated at 65° C. for 45 minutes. After cooling, assay buffer was added and the sample was incubated with the CSPD® substrate. • 5. Luminescence was measured in a Wallac 1450 VICTOR™ luminescence counter.
EC50 was the compound concentration that was estimated to provide a 50% reduction of maximum response in Notch induced SEAP levels. An EC50 from a given assay may only be used for averaging if it has met the following criteria: • 1. There is a lower dose in the assay which gives a % Notch Activity>60% (bracketing lower dose). • 2. There is a higher dose in the assay which gives a % Notch Activity<30% (bracketing higher dose), and the maximum inhibition is reached (e.g., a given compound might achieve 80% inhibition (% Notch activity is about 20%) over several doses, and therefore 20% would be considered the maximum inhibition.
Data were analyzed in Microsoft EXCEL® format. EC50 was calculated by LSW using sigmoidal inhibition from B0 to nsb model (model 59). Each assay plate contained a dose response curve for the reference compound 5-chloro-N-[(1S,2R)-2-ethyl-4,4,4-trifluoro-1-(hydroxymethyl)butyl]thiophene-2-sulfonamide. This compound is discussed in International Patent Publication No. WO 2004/092155. The following data is not shown in that publication.
as §18

[1] = MSD electrochemiluminescent assay, hAPP-REPNL751 CHO cells, read-out: Aβ40 EC50 for inhibition of Aβ40
[2] = MSD electrochemiluminescent assay, hAPP-REPNL751 CHO cells, read-out: Aβ42 EC50 for inhibition of Aβ42
[3] = CHO-K1, stable transfection Notch reporter assay, 48 hours, read-out: Notch EC50 for inhibition of Notch
[4] = CHO, beta amyloid assay reference compounds, read-out: EC50 Aβ40
[5] = CHO, beta amyloid assay reference compounds, read-out: EC50 Aβ42
[6] = CHO-K1, Notch assay reference compounds, read-out: EC50 (Notch assay)

EC50 (Aβ40; [1]) [nM]	EC50 (Aβ42; [2]) [nM]	EC50 (Notch; [3]) [µM]	EC50 (Aβ40; [4]) [nM]	EC50 (Aβ42; [5]) [nM]	EC50 (Notch; [6]) [µM]	EC50 (Notch; stable transfection Notch reporter assay, 48 hours, read-out: Notch EC50 for inhibition of Notch) [µM]	SMILES
2360	2280	> 20	–	–	–	–	O=S(=O)(N[C@H](CO)[C@H](c1ccc(Cl)cc1)C(F)(F)F)c1ccc(Cl)s1 (relative stereo) [Example 14, 5-Chloro-N-[(1S*,2S*)-2-(4-chlorophenyl)-3,3,3-trifluoro-1-(hydroxymethyl)propyl]thiophene-2-sulfonamide]
98	98	1.74	–	–	–	–	O=S(=O)(N[C@H](CO)[C@@H](c1cccc(F)c1)C(F)(F)F)c1ccc(Cl)s1 (relative stereo) [Example 12, 5-Chloro-N-[(1S*,2R*)-3,3,3-trifluoro-2-(3-fluorophenyl)-1-(hydroxymethyl)propyl]thiophene-2-sulfonamide]
83	80	2.78	–	–	–	–	O=S(=O)(N[C@H](CO)[C@@H](c1cc(F)cc(F)c1)C(F)(F)F)c1ccc(Cl)s1 (relative stereo) [Example 8, 5-Chloro-N-[(1S*,2R*)-2-(3,5-difluorophenyl)-3,3,3-trifluoro-1-(hydroxymethyl)propyl]thiophene-2-sulfonamide]
–	–	–	109	79	0.068	–	CC(C)[C@H](O)C(=O)N[C@@H](C)C(=O)N[C@@H]1C(=O)N(C)CCc2ccccc21 [(2S)-2-hydroxy-3-methyl-N-((1S)-1-methyl-2-{[(1S)-3-methyl-2-oxo-2,3,4,5-tetrahydro-1H-3-benzazepin-1-yl]amino}-2-oxoethyl)butanamide, reference compound]
> 15000	> 15000	–	–	–	–	–	O=S(=O)(N[C@@H](CO)[C@@H](c1ccccc1)C(F)(F)F)c1ccc(Cl)s1 (stereo in doubt) [Example 2, 5-Chloro-N-[(1R* ,2R*)-3,3,3-trifluoro-1-(hydroxymethyl)-2-phenylpropyl]thiophene-2-sulfonamide]
710	760	> 20	–	–	–	–	O=S(=O)(NC(CO)C(c1ccccc1)C(F)(F)F)c1ccc(Cl)s1 (stereo not shown) [Example 1, 5-Chloro-N-[3,3,3-trifluoro-1-(hydroxymethyl)-2-phenylpropyl]thiophene-2-sulfonamide]
–	–	–	6	5	0.225	–	CC[C@H](CC(F)(F)F)[C@@H](CO)NS(=O)(=O)c1ccc(Cl)s1 [5-chloro-N-[(1S,2R)-2-ethyl-4,4,4-trifluoro-1-(hydroxymethyl)butyl]thiophene-2-sulfonamide, reference compound]
238	197	3.75	–	–	–	–	O=S(=O)(N[C@H](CO)[C@@H](c1ccccc1)C(F)(F)F)c1ccc(Cl)s1 [Example 4, 5-Chloro-N-[(1S,2R)-3,3,3-trifluoro-1-(hydroxymethyl)-2-phenylpropyl]thiophene-2-sulfonamide]
7300	8750	–	–	–	–	> 20	O=S(=O)(N[C@@H](CO)[C@@H](c1cc(F)cc(F)c1)C(F)(F)F)c1ccc(Cl)s1.O=S(=O)(N[C@H](CO)[C@H](c1cc(F)cc(F)c1)C(F)(F)F)c1ccc(Cl)s1 (relative stereo) [Example 7, 5-Chloro-N-[(1S*,2S*)-2-(3,5-difluorophenyl)-3,3,3-trifluoro-1-(hydroxymethyl)propyl]thiophene-2-sulfonamide and 5-chloro-N-[(1R*,2R*)-2-(3,5-difluorophenyl)-3,3,3-trifluoro-1-(hydroxymethyl)propyl]thiophene-2-sulfonamide]
1880	1570	> 20	–	–	–	–	O=S(=O)(N[C@H](CO)[C@H](c1ccc(F)cc1)C(F)(F)F)c1ccc(Cl)s1 (relative stereo) [Example 10, 5-Chloro-N-[(1S*,2S*)-3,3,3-trifluoro-2-(4-fluorophenyl)-1-(hydroxymethyl)propyl]thiophene-2-sulfonamide]
4060	3380	> 20	–	–	–	–	O=S(=O)(N[C@H](CO)[C@H](c1cccc(F)c1)C(F)(F)F)c1ccc(Cl)s1 (relative stereo) [Example 11, 5-Chloro-N-[(1S*,2S*)-3,3,3-trifluoro-2-(3-fluorophenyl)-1-(hydroxymethyl)propyl]thiophene-2-sulfonamide]
316	396	7.6	–	–	–	–	O=S(=O)(N[C@H](CO)[C@@H](c1ccc(Cl)cc1)C(F)(F)F)c1ccc(Cl)s1 (relative stereo) [Example 13, 5-Chloro-N-[(1S*,2R*)-2-(4-chlorophenyl)-3,3,3-trifluoro-1-(hydroxymethyl)propyl]thiophene-2-sulfonamide]
> 15000	> 15000	–	–	–	–	–	O=S(=O)(N[C@@H](CO)[C@H](c1ccccc1)C(F)(F)F)c1ccc(Cl)s1 [Example 3, 5-Chloro-N-[(1R,2S)-3,3,3-trifluoro-1-(hydroxymethyl)-2-phenylpropyl]thiophene-2-sulfonamide]
